# In ChEMBL document CHEMBL1137659, “Molecular epidemiology of clinical isolates of carbapenem-resistant Acinetobacter spp. from Chinese hospitals” (2007):
# How the values were obtained:
# [1] = test system: Acinetobacter phenon 6/ct 13TU (Acinetobacter sp.); assay: Antimicrobial activity against imipenem and meropenem-resistant Acinetobacter phenon 6/ct 13TU isolate PU86 by CLSI agar dilution method
# Acinetobacter baumannii [2] = assay: Antimicrobial activity against imipenem and meropenem-resistant Acinetobacter baumannii isolate BJ3-9 by CLSI agar dilution method; assay type: functional
# [3] = test system: Acinetobacter genospecies 3; assay: Antimicrobial activity against imipenem and meropenem-resistant Acinetobacter genospecies 3 isolate PUA7 by CLSI agar dilution method
# [4] = test system: Acinetobacter genospecies 13TU; assay: Antimicrobial activity against imipenem and meropenem-resistant Acinetobacter genospecies 13TU isolate CY6 by CLSI agar dilution method
# Acinetobacter baumannii [5] = assay: Antimicrobial activity against imipenem and meropenem-resistant Acinetobacter baumannii isolate CY7 by CLSI agar dilution method; assay type: functional
# Acinetobacter baumannii [6] = assay: Antimicrobial activity against imipenem and meropenem-resistant Acinetobacter baumannii isolate ZJ32 by CLSI agar dilution method; assay type: functional
# [7] = test system: Acinetobacter genospecies 3 (Acinetobacter genomosp. 3); assay: Antimicrobial activity against imipenem and meropenem-resistant Acinetobacter genospecies 3 isolate PU78 by CLSI agar dilution method; details: Acinetobacter genospecies 3, isolate PU78
# Acinetobacter baumannii [8] = assay: Antimicrobial activity against imipenem and meropenem-resistant Acinetobacter baumannii isolate DL34 by CLSI agar dilution method; assay type: functional
# [9] = test system: Acinetobacter phenon 6/ct 13TU; assay: Antimicrobial activity against imipenem and meropenem-resistant Acinetobacter phenon 6/ct 13TU isolate FZ4A18 by CLSI agar dilution method
# Acinetobacter baumannii [10] = assay: Antimicrobial activity against imipenem and meropenem-resistant Acinetobacter baumannii isolate ZJ58 by CLSI agar dilution method; assay type: functional
# Acinetobacter baumannii [11] = assay: Antimicrobial activity against imipenem and meropenem-resistant Acinetobacter baumannii isolate BJ55 by CLSI agar dilution method; assay type: functional
# Acinetobacter baumannii [12] = assay: Antimicrobial activity against imipenem and meropenem-resistant Acinetobacter baumannii isolate BJ52 by CLSI agar dilution method; assay type: functional
# Acinetobacter baumannii [13] = assay: Antimicrobial activity against imipenem and meropenem-resistant Acinetobacter baumannii isolate PU73 by CLSI agar dilution method; assay type: functional
# Acinetobacter phenon 5 = assay: Antimicrobial activity against imipenem and meropenem-resistant Acinetobacter phenon 5 isolate PUA6 by CLSI agar dilution method
# Acinetobacter baumannii [14] = assay: Antimicrobial activity against imipenem and meropenem-resistant Acinetobacter baumannii isolate PU4A1 by CLSI agar dilution method; assay type: functional
# Acinetobacter baumannii [15] = assay: Antimicrobial activity against imipenem and meropenem-resistant Acinetobacter baumannii isolate PUA1 by CLSI agar dilution method; assay type: functional
# Acinetobacter baumannii [16] = assay: Antimicrobial activity against imipenem and meropenem-resistant Acinetobacter baumannii isolate FW-F1 by CLSI agar dilution method; assay type: functional
# [17] = test system: Acinetobacter genospecies 10/11; assay: Antimicrobial activity against imipenem and meropenem-resistant Acinetobacter genospecies 10/11 isolate ZS5 by CLSI agar dilution method
# Acinetobacter baumannii [18] = assay: Antimicrobial activity against imipenem and meropenem-resistant Acinetobacter baumannii isolate FZ84 by CLSI agar dilution method; assay type: functional
# Acinetobacter baumannii [19] = assay: Antimicrobial activity against imipenem and meropenem-resistant Acinetobacter baumannii isolate PU4A22 by CLSI agar dilution method; assay type: functional
# Acinetobacter baumannii [20] = assay: Antimicrobial activity against imipenem and meropenem-resistant Acinetobacter baumannii isolate BJ3-23 by CLSI agar dilution method; assay type: functional
# Acinetobacter baumannii [21] = assay: Antimicrobial activity against imipenem and meropenem-resistant Acinetobacter baumannii isolate ZJ36 by CLSI agar dilution method; assay type: functional
# Acinetobacter baumannii [22] = assay: Antimicrobial activity against imipenem and meropenem-resistant Acinetobacter baumannii isolate NJ59 by CLSI agar dilution method; assay type: functional
# Acinetobacter baumannii [23] = assay: Antimicrobial activity against imipenem and meropenem-resistant Acinetobacter baumannii isolate JN45 by CLSI agar dilution method; assay type: functional
# [24] = test system: Acinetobacter genospecies 10/11; assay: Antimicrobial activity against imipenem and meropenem-resistant Acinetobacter genospecies 10/11 isolate ZS15 by CLSI agar dilution method
# Acinetobacter baumannii [25] = assay: Antimicrobial activity against imipenem and meropenem-resistant Acinetobacter baumannii isolate ZJ49 by CLSI agar dilution method; assay type: functional
# [26] = test system: Acinetobacter genomosp. 3; assay: Antimicrobial activity against imipenem and meropenem-resistant Acinetobacter genospecies 3 isolate PU78 by CLSI agar dilution method; details: Acinetobacter genomosp. 3, isolate PU78
# [27] = test system: Acinetobacter phenon 6/ct 13TU; assay: Antimicrobial activity against imipenem and meropenem-resistant Acinetobacter phenon 6/ct 13TU isolate PU86 by CLSI agar dilution method
# [28] = test system: Acinetobacter genospecies 3; assay: Antimicrobial activity against imipenem and meropenem-resistant Acinetobacter genospecies 3 isolate PU78 by CLSI agar dilution method
Compound,MIC (Acinetobacter baumannii [2]),MIC [3],MIC [4],MIC (Acinetobacter baumannii [5]),MIC (Acinetobacter baumannii [6]),MIC (Acinetobacter baumannii [8]),MIC (Acinetobacter baumannii [10]),MIC (Acinetobacter baumannii [11]),MIC (Acinetobacter baumannii [12]),MIC (Acinetobacter baumannii [13]),MIC (Acinetobacter phenon 5),MIC (Acinetobacter baumannii [14]),MIC (Acinetobacter baumannii [15]),MIC (Acinetobacter baumannii [16]),MIC [17],MIC (Acinetobacter baumannii [18]),MIC (Acinetobacter baumannii [19]),MIC (Acinetobacter baumannii [20]),MIC (Acinetobacter baumannii [21]),MIC (Acinetobacter baumannii [22]),also measured
C[C@@H](O)[C@H]1C(=O)N2C(C(=O)O)=C(S[C@@H]3CN[C@H](C(=O)N(C)C)C3)[C@H](C)[C@H]12 [MEROPENEM],32 µg/mL,32 µg/mL,32 µg/mL,64 µg/mL,32 µg/mL,32 µg/mL,32 µg/mL,32 µg/mL,32 µg/mL,64 µg/mL,64 µg/mL,64 µg/mL,64 µg/mL,64 µg/mL,128 µg/mL,16 µg/mL,128 µg/mL,64 µg/mL,16 µg/mL,16 µg/mL,MIC [1]: 32 µg/mL; MIC [7]: 32 µg/mL; MIC [9]: 16 µg/mL; MIC (Acinetobacter baumannii [23]): 16 µg/mL; MIC [24]: 64 µg/mL; MIC (Acinetobacter baumannii [25]): 32 µg/mL
CN(C)c1ccc(O)c2c1C[C@H]1C[C@H]3[C@H](N(C)C)C(O)=C(C(N)=O)C(=O)[C@@]3(O)C(O)=C1C2=O [MINOCYCLINE],4 µg/mL,0.5 µg/mL,0.25 µg/mL,0.5 µg/mL,16 µg/mL,8 µg/mL,16 µg/mL,16 µg/mL,8 µg/mL,8 µg/mL,0.5 µg/mL,2 µg/mL,4 µg/mL,2 µg/mL,8 µg/mL,4 µg/mL,2 µg/mL,8 µg/mL,32 µg/mL,4 µg/mL,MIC [1]: ≤ 0.125 µg/mL; MIC [26]: ≤ 0.125 µg/mL; MIC [9]: 0.5 µg/mL; MIC (Acinetobacter baumannii [23]): 0.5 µg/mL; MIC [24]: 0.25 µg/mL; MIC (Acinetobacter baumannii [25]): 32 µg/mL
CO[C@H]1/C=C/O[C@@]2(C)Oc3c(C)c(O)c4c(O)c(c(/C=N/N5CCN(C)CC5)c(O)c4c3C2=O)NC(=O)/C(C)=C\C=C\[C@H](C)[C@H](O)[C@@H](C)[C@@H](O)[C@@H](C)[C@H](OC(C)=O)[C@@H]1C [RIFAMPIN],8 µg/mL,128 µg/mL,> 256 µg/mL,4 µg/mL,16 µg/mL,4 µg/mL,8 µg/mL,8 µg/mL,8 µg/mL,4 µg/mL,> 256 µg/mL,4 µg/mL,32 µg/mL,8 µg/mL,256 µg/mL,128 µg/mL,4 µg/mL,8 µg/mL,8 µg/mL,8 µg/mL,MIC [1]: 256 µg/mL; MIC [7]: 4 µg/mL; MIC [9]: 4 µg/mL; MIC (Acinetobacter baumannii [23]): > 256 µg/mL; MIC [24]: > 256 µg/mL; MIC (Acinetobacter baumannii [25]): 8 µg/mL
COLISTIN,1 µg/mL,0.5 µg/mL,0.5 µg/mL,0.5 µg/mL,1 µg/mL,0.5 µg/mL,1 µg/mL,0.5 µg/mL,1 µg/mL,1 µg/mL,0.5 µg/mL,0.5 µg/mL,0.5 µg/mL,0.5 µg/mL,0.5 µg/mL,0.5 µg/mL,1 µg/mL,1 µg/mL,1 µg/mL,0.5 µg/mL,MIC [27]: 1 µg/mL; MIC [28]: 1 µg/mL; MIC [9]: 1 µg/mL; MIC (Acinetobacter baumannii [23]): 1 µg/mL; MIC [24]: 1 µg/mL; MIC (Acinetobacter baumannii [25]): 1 µg/mL
GENTAMICIN,> 256 µg/mL,> 256 µg/mL,> 256 µg/mL,> 256 µg/mL,> 256 µg/mL,> 256 µg/mL,> 256 µg/mL,> 256 µg/mL,4 µg/mL,> 256 µg/mL,> 256 µg/mL,> 256 µg/mL,> 256 µg/mL,> 256 µg/mL,> 256 µg/mL,> 256 µg/mL,> 256 µg/mL,> 256 µg/mL,1 µg/mL,> 256 µg/mL,MIC [27]: > 256 µg/mL; MIC [28]: 1 µg/mL; MIC (Acinetobacter baumannii [23]): > 256 µg/mL; MIC (Acinetobacter baumannii [25]): > 256 µg/mL
